From EPA's ToxRefDB 2

Columns and labels:
[1] = test system: rat; conditions: Prenatal developmental toxicity study; sprague dawley; Oral; Gavage/Intubation; dose end: 15 GD; group: maternal; reproductive / reproductive performance / postimplantation loss / postimplantation loss + reproductive / reproductive performance / …
[2] = test system: dog; conditions: Chronic toxicity, beagle, Oral, Feed, dose end: 104 week
[3] = test system: rat; conditions: Combined chronic toxicity/carcinogenicity, sprague dawley, Oral, Feed, dose end: 103 week
[4] = test system: rat; conditions: Subchronic oral toxicity in rodents, Feed, dose end: 13 week
[5] = test system: rat; conditions: Subchronic oral toxicity in rodents, sprague dawley, Feed, dose end: 13 week, group: systemic
[6] = test system: dog; conditions: Chronic toxicity; beagle; Oral; Feed; dose end: 52 week; group: systemic; systemic / hematology / blood clotting / blood clotting - prothrombin time + systemic / hematology / erythrocyte (rbc) count differential / …
[7] = test system: rat; conditions: Subchronic inhalation toxicity, wistar, Whole-Body, dose end: 78 day, group: systemic, systemic / organ weight / kidney / nos + systemic / organ weight / liver / nos + systemic / organ weight / ovary / nos + systemic / …
[8] = test system: mouse; conditions: Carcinogenicity, cd1, Oral, Feed, dose end: 108 week, group: systemic
[9] = test system: mouse; conditions: Subchronic oral toxicity in rodents, cd1, Feed, dose end: 90 day, group: systemic
[10] = test system: rat; conditions: Prenatal developmental toxicity study, sprague dawley, Oral, Gavage/Intubation, dose end: 17 GD
[11] = test system: rat; conditions: Multigenerational reproductive toxicity study, other, Oral, Feed, dose end: 2 generation
[12] = test system: rabbit; conditions: Prenatal developmental toxicity study, new zealand white, Oral, Gavage/Intubation, dose end: 28 GD
[13] = test system: rat; conditions: Combined chronic toxicity/carcinogenicity; sprague dawley; Oral; Feed; dose end: 104 week; group: systemic; systemic / hematology / blood clotting / blood clotting - thromboplastin time + systemic / hematology / platelet / platelet + systemic / …
[14] = test system: rat; conditions: Developmental neurotoxicity study; long evans; Injection; Intraperitoneal; dose end: 21 PND; group: cannot be grouped; systemic / in life observation / body weight / offspring (pup) weight
[15] = test system: rat; conditions: Developmental neurotoxicity study, long evans, Injection, Intraperitoneal, dose end: 66 PND, group: cannot be grouped
[16] = test system: rat; conditions: Developmental neurotoxicity study; long evans; Injection; Intraperitoneal; dose end: 18 PND; group: cannot be grouped; systemic / pathology gross / brain / reduced size + systemic / pathology microscopic / brain / depletion cellular
[17] = test system: rat; conditions: Developmental neurotoxicity study, long evans, Injection, Intraperitoneal, dose end: 122 PND, group: cannot be grouped
[18] = group: cholinesterase, cholinesterase / cholinesterase / cholinesterase / brain cholinesterase (che) + cholinesterase / cholinesterase / cholinesterase / whole …
[19] = group: systemic, systemic / in life observation / water consumption / water consumption
[20] = group: cholinesterase, cholinesterase / cholinesterase / cholinesterase / brain cholinesterase (che)
[21] = group: cholinesterase, cholinesterase / cholinesterase / cholinesterase / brain cholinesterase (che) + cholinesterase / cholinesterase / cholinesterase / plasma …
[22] = group: systemic, systemic / pathology microscopic / eye / cataract
[23] = group: cholinesterase, cholinesterase / cholinesterase / cholinesterase / whole blood cholinesterase (che) + cholinesterase / cholinesterase / cholinesterase / …
[24] = group: systemic, systemic / in life observation / food consumption / food consumption
[25] = systemic / clinical chemistry / alanine aminotransferase (alt/sgpt) / alanine aminotransferase (alt/sgpt) + systemic / clinical chemistry / …
[26] = systemic / in life observation / body weight / body weight gain + systemic / in life observation / mortality / mortality
[27] = systemic / in life observation / body weight / body weight gain + systemic / in life observation / mortality / mortality + systemic / …
[28] = systemic / hematology / erythrocyte (rbc) count differential / erythrocyte (rbc) + systemic / hematology / hematocrit (hct) / hematocrit (…
[29] = group: developmental, systemic / in life observation / clinical signs / mobility + systemic / in life observation / clinical signs / rearing activity + …
[30] = group: maternal, systemic / in life observation / clinical signs / salivation
[31] = group: offspring, systemic / organ weight / liver / relative to body weight
[32] = group: offspring, systemic / organ weight / liver / relative to body weight + systemic / in life observation / body weight / offspring (pup) weight + systemic…
[33] = group: parental, systemic / organ weight / thyroid gland / absolute
[34] = group: developmental, systemic / in life observation / body weight / fetal weight
[35] = group: maternal, reproductive / reproductive performance / aborted / aborted + reproductive / reproductive performance / postimplantation loss / …
[36] = systemic / clinical chemistry / [other] / [other] + systemic / clinical chemistry / protein / protein + systemic / in life observation / …
[37] = systemic / clinical chemistry / [other] / [other] + systemic / clinical chemistry / protein / protein + systemic / organ weight / brain / …
[38] = systemic / in life observation / body weight / offspring (pup) weight + systemic / in life observation / clinical signs / [other] + systemic…
[39] = systemic / organ weight / brain / nos

SMILES: CNC(=O)Oc1cccc2c1OC(C)(C)O2 [Bendiocarb]
- LEL [1]: 10 mg/kg/day
- LOAEL [1]: 10 mg/kg/day
- NEL [1]: 2 mg/kg/day
- NOAEL [1]: 2 mg/kg/day
- LEL [2, 18]: 15 mg/kg/day
- LOAEL [2, 18]: 15 mg/kg/day
- NEL [2, 18]: 3 mg/kg/day
- NOAEL [2, 18]: 3 mg/kg/day
- LEL [2, 19]: 3 mg/kg/day
- LOAEL [2, 19]: > 15 mg/kg/day
- NEL [2, 19]: 0.7 mg/kg/day
- NOAEL [2, 19]: ≥ 15 mg/kg/day
- LEL [3, 20]: 0.86 mg/kg/day
- LOAEL [3, 20]: 0.86 mg/kg/day
- NEL [3, 21]: 0.42 mg/kg/day
- NOAEL [3, 21]: 0.42 mg/kg/day
- LEL [3, 22]: 0.72 mg/kg/day
- LOAEL [3, 22]: 0.72 mg/kg/day
- NEL [3, 22]: 0.35 mg/kg/day
- NOAEL [3, 22]: 0.35 mg/kg/day
- NEL ([4]; group: cholinesterase, cholinesterase / cholinesterase / cholinesterase / plasma cholinesterase (che) + cholinesterase / cholinesterase / cholinesterase / whole …): 0.5 mg/kg/day
- LEL ([4]; group: cholinesterase, cholinesterase / cholinesterase / cholinesterase / whole blood cholinesterase (che)): 2.5 mg/kg/day
- LOAEL [4, 23]: > 12.5 mg/kg/day
- NOAEL [4, 23]: ≥ 12.5 mg/kg/day
- LEL [4, 24]: 12.5 mg/kg/day
- LOAEL [4, 24]: 12.5 mg/kg/day
- NEL [4, 24]: 2.5 mg/kg/day
- NOAEL [4, 24]: 2.5 mg/kg/day

SMILES: CCOc1ccc(C(C)(C)COCc2cccc(Oc3ccccc3)c2)cc1 [Etofenprox]
- LOAEL [5, 25]: 120 mg/kg/day
- NOAEL [5, 25]: 20 mg/kg/day
- LEL ([5]; systemic / clinical chemistry / glucose / glucose): 23 mg/kg/day
- NEL ([5]; systemic / clinical chemistry / glucose / glucose + systemic / clinical chemistry / alanine aminotransferase (alt/sgpt) / alanine …): 3.8 mg/kg/day
- LEL [6]: 339 mg/kg/day
- LOAEL [6]: 339 mg/kg/day
- NEL [6]: 32.2 mg/kg/day
- NOAEL [6]: 32.2 mg/kg/day
- LEL [7]: 52.3 mg/kg/day
- LOAEL [7]: 52.3 mg/kg/day
- NEL [7]: 10.6 mg/kg/day
- NOAEL [7]: 10.6 mg/kg/day
- LEL [8, 26]: 10.4 mg/kg/day
- LOAEL [8, 26]: 10.4 mg/kg/day
- NEL [8, 27]: 3.1 mg/kg/day
- NOAEL [8, 27]: 3.1 mg/kg/day
- LOAEL [9, 28]: 375 mg/kg/day
- NEL [9, 28]: 6.1 mg/kg/day
- NOAEL [9, 28]: 60 mg/kg/day
- LEL ([9]; systemic / hematology / mean corpuscular (cell) volume (mcv) / mean corpuscular (cell) volume (mcv) + systemic / hematology / monocytes / …): 60 mg/kg/day
- LEL ([10]; group: developmental, systemic / in life observation / clinical signs / mobility + systemic / in life observation / clinical signs / rearing activity): 250 mg/kg/day
- LOAEL [10, 29]: 5000 mg/kg/day
- NEL [10, 29]: 12.5 mg/kg/day
- NOAEL [10, 29]: 250 mg/kg/day
- LOAEL ([10]; group: maternal, systemic / in life observation / clinical signs / anogenital staining + systemic / in life observation / clinical signs / scabbing): 5000 mg/kg/day
- LEL [10, 30]: 12.5 mg/kg/day
- NEL [10, 30]: < 12.5 mg/kg/day
- NOAEL ([10]; group: maternal, systemic / in life observation / clinical signs / salivation + systemic / in life observation / clinical signs / anogenital staining + …): 250 mg/kg/day
- LEL [11, 31]: 35 mg/kg/day
- LOAEL [11, 31]: 35 mg/kg/day
- NEL [11, 32]: 5 mg/kg/day
- NOAEL [11, 32]: 5 mg/kg/day
- LOAEL ([11]; group: parental, systemic / organ weight / liver / relative to body weight): 35 mg/kg/day
- NOAEL ([11]; group: parental, systemic / organ weight / liver / relative to body weight + systemic / in life observation / clinical signs / discharge on cageboard + …): 5 mg/kg/day
- LEL [11, 33]: 5 mg/kg/day
- NEL [11, 33]: < 5 mg/kg/day
- LEL [12, 34]: 300 mg/kg/day
- LOAEL [12, 34]: 300 mg/kg/day
- NEL [12, 34]: 100 mg/kg/day
- NOAEL [12, 34]: 100 mg/kg/day
- LEL [12, 35]: 300 mg/kg/day
- LOAEL [12, 35]: 300 mg/kg/day
- NEL [12, 35]: 100 mg/kg/day
- NOAEL [12, 35]: 100 mg/kg/day
- LEL [13]: 1.1 mg/kg/day
- LOAEL [13]: 25.5 mg/kg/day
- NEL [13]: < 1.1 mg/kg/day
- NOAEL [13]: 3.7 mg/kg/day

SMILES: [CH3][Sn+]([CH3])[CH3].[OH-] [Trimethyltin hydroxide]
- LEL [14]: 6 mg/kg/day
- LOAEL [14]: > 6 mg/kg/day
- NEL [14]: 5 mg/kg/day
- NOAEL [14]: ≥ 6 mg/kg/day
- LOAEL [15, 36]: > 6 mg/kg/day
- NOAEL [15, 36]: ≥ 6 mg/kg/day
- LEL [15, 37]: 5 mg/kg/day
- NEL [15, 37]: < 5 mg/kg/day
- LEL [16]: 6 mg/kg/day
- LOAEL [16]: > 6 mg/kg/day
- NEL [16]: < 6 mg/kg/day
- NOAEL [16]: ≥ 6 mg/kg/day
- LOAEL [17, 38]: > 6 mg/kg/day
- NOAEL [17, 38]: ≥ 6 mg/kg/day
- LEL [17, 39]: 4 mg/kg/day
- NEL [17, 39]: < 4 mg/kg/day
